Assay results published in PubChem BioAssay (NCI).
Values joined by “and” are separate entries in the source; they are usually repeats but may differ in a detail not shown here. Equal values may be shown once.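 Test compounds were applied to cells in 96-well plates for 48 hours at 5 doses. Abbreviation: GI50, concentration required for 50% inhibition of growth. Definition used: TGI = concentration required for complete inhibition of growth.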

Legend:
Experiment in all cases: NCI anticancer screen, dose series, 48 h
ACHN renal = tested on: ACHN renal
SNB-19 CNS = tested on: SNB-19 CNS
T-47D breast = tested on: T-47D breast
HL-60(TB) leukemia = tested on: HL-60(TB) leukemia
NCI-H522 lung = tested on: NCI-H522 lung
HOP-62 NSCLC = tested on: HOP-62 NSCLC
SK-MEL-2 melanoma = tested on: SK-MEL-2 melanoma
HT29 colon = tested on: HT29 colon
EKVX NSCLC = tested on: EKVX NSCLC
A549 NSCLC = tested on: A549 NSCLC

Compound	GI50 (ACHN renal) [µM]	TGI (ACHN renal) [µM]	GI50 (SNB-19 CNS)	TGI (SNB-19 CNS)	GI50 (T-47D breast) [µM]	TGI (T-47D breast) [µM]	GI50 (HL-60(TB) leukemia) [µM]	TGI (HL-60(TB) leukemia)	GI50 (NCI-H522 lung)	TGI (NCI-H522 lung)	GI50 (HOP-62 NSCLC)	TGI (HOP-62 NSCLC)	GI50 (SK-MEL-2 melanoma) [µM]	TGI (SK-MEL-2 melanoma)	GI50 (HT29 colon) [µM]	TGI (HT29 colon)	GI50 (EKVX NSCLC) [µM]	TGI (EKVX NSCLC)	GI50 (A549 NSCLC)	TGI (A549 NSCLC)
Cn1nc(C(F)(F)F)cc1-c1c[nH]c(OCc2ccc(Cl)cc2)c(-c2ccc(Cl)c(C(F)(F)F)c2)c1=O	1.28	4.23	1.63 µM	> 50 µM	0.803	3.27	1.09	2.55 µM	0.552 µM	6.15 µM	1.3 µM	3.55 µM	0.761	2.52 µM	1.51	> 47.5 µM	1.39	> 50 µM	1.45 µM	> 50 µM
O=[N+]([O-])c1ccc(C2=Nn3c(nnc3-c3ccc(Cl)cc3)SC2)o1		27.3		29.9 µM		12.9		6.28 µM		2 µM		24.9 µM		27.1 µM		11.1 µM		23.9 µM		48.6 µM
c1ccc2cc(NCNc3ccc4ccccc4c3)ccc2c1		38		> 100 µM		49.4		3.79 µM		49.5 µM		51.3 µM		32.1 µM		41.3 µM		65.5 µM		47.5 µM
C[C@@H]1CCC([C@@H](C)[C@H]2CC[C@H]3[C@@H]4CC[C@H]5C[C@@H](O)CC[C@]5(C)[C@H]4CC[C@]23C)=NC1		> 61.5		> 100 µM		> 61.9		> 21.2 µM		30.7 µM		> 51.3 µM		34.8 µM		> 55.4 µM		> 100 µM		> 100 µM
COC(=O)C1=COC(C)C2CN3CCc4c([nH]c5cc(OC)c(OC)cc45)C3CC12 (centres undefined)		> 100		> 100 µM		> 100		66.6 µM and 65.9 µM	> 100 µM and 22 µM	> 100 µM and 57.2 µM		> 100 µM		> 100 µM		> 100 µM and 94.5 µM		> 100 µM		> 100 µM
CC1(C)CC[C@]2(C(=O)O)CC[C@]3(C)C(=CC[C@@H]4[C@@]5(C)C[C@H](O)[C@H](O)[C@@](C)(C(=O)O)[C@@H]5CC[C@]43C)[C@@H]2C1		> 100		> 100 µM		> 100		> 31.6 µM		> 100 µM		> 100 µM		> 100 µM		> 100 µM		> 100 µM		> 100 µM
NC(N)=NC(N)=Nc1cnccn1		> 100		> 100 µM		> 100		> 100 µM		> 100 µM		> 100 µM		> 100 µM		> 100 µM		> 100 µM		> 100 µM
O=C(/C(=C/c1ccc([N+](=O)[O-])cc1)SCc1ccc(Cl)cc1)c1ccc(F)cc1	1.76	3.33	1.87 µM	4.11 µM	4.32	19.3	2.82	11.1 µM	1.84 µM	3.76 µM	13.1 µM	35.4 µM	7.9	23.1 µM	2	4.12 µM	3.78	15.2 µM	49.5 µM	> 100 µM
O=C1NC2C(=CC(O)C(O)C2O)c2cc3c(cc21)OCO3 (centres undefined)	0.334	1.57	0.296 µM and 0.111 µM	0.832 µM and 2.12 µM		1.5		0.282 µM and 0.213 µM and 0.594 µM	0.352 µM and 0.105 µM	0.574 µM and 1.41 µM	0.277 µM and 0.191 µM	1.82 µM and 1.84 µM	0.305	2.95 µM and 1.43 µM	0.273	3.58 µM and 5.95 µM	0.285	3.06 µM and 2.29 µM	0.462 µM and 0.273 µM	6.87 µM and 4.1 µM
COc1ccc(Cn2cc3c(c2-c2ccccc2)CCc2cnoc2-3)cc1OC	2.83	> 100	2.79 µM	> 100 µM	0.664	71.2	0.299	1.69 µM	0.229 µM	0.801 µM	1.34 µM	> 100 µM	0.735	> 100 µM	0.387	> 100 µM	1.66	> 100 µM	0.875 µM	> 100 µM
C[C@]12CC[C@@H]3c4cc(OC(F)F)c(OS(N)(=O)=O)cc4CC[C@H]3[C@@H]1CC[C@@H]2OS(N)(=O)=O	1.8	25.6	1.48 µM	21.8 µM	1.56	31.7	0.829	27.6 µM	0.689 µM	12.7 µM	3.4 µM	38.8 µM	2.79	24.9 µM	2.25	22.5 µM	1.7	22.5 µM	2.52 µM	34.4 µM
COc1cc2c(cc1Cc1cccc(Cl)c1F)c(=O)c(C(=O)O)cn2[C@@H](CO)C(C)C	4.63	20.9	3.07 µM	16 µM	5.5	18.3	2.81	6.95 µM	3.51 µM	11.7 µM	5.22 µM	18.6 µM	3.98	13.8 µM	2.62	5.56 µM	3.85	17.3 µM	3.11 µM	12.2 µM
COc1cc(/C(=C2/O[C@@H]([C@H]3COC(C)(C)O3)[C@H]3OC(C)(C)O[C@@H]23)c2ccc3ccccc3c2)cc(OC)c1OC	4.4	> 100	2.49 µM	6.08 µM	3.45	40.6	74.9	> 100 µM	2.27 µM	6.54 µM	9.78 µM	31.4 µM	1.53	4.12 µM	3.64	16.3 µM	5.59	> 100 µM	3.09 µM	9.55 µM
CC1=CCCC2C1(C)CCC(C)C2(C)Cc1cc(O)ccc1O (centres undefined)		25.6	11.5 µM	27.3 µM and 18.5 µM		27.3	2.67	15.2 µM and 4.61 µM	3.65 µM	12.7 µM and 8.37 µM	15.2 µM	28.9 µM and 35.7 µM		27.9 µM and 24 µM	14.2	29.6 µM and 37.1 µM	7.71	22 µM and 18.8 µM	7.14 µM	20.5 µM and 21.6 µM
COc1ccc2c(c1)CC[C@@H]1[C@@H]2CC[C@]2(C)c3c(cc(C(=O)O)c4sccc34)C[C@@H]12	18.9	78.4	17.8 µM	48.4 µM	8.21	49	8.61	25.3 µM	24.7 µM	86.8 µM	19.6 µM	38.5 µM	37.5	> 100 µM	13.8	34 µM	16.2	40.5 µM	11.2 µM	35.9 µM
CC[C@@H](C(=O)[C@H](C)[C@H](O)[C@@H](C)[C@H]1O[C@H]([C@@H](CC)C(=O)N(CC)CC)CC[C@H]1C)C1O[C@]2(C=C[C@@H](O)[C@]3(CC[C@@](C)([C@H]4CC[C@](O)(CC)[C@H](C)O4)O3)O2)[C@H](C)C[C@@H]1C (some centres undefined)	2.93	10	3.24 µM	16.8 µM	2.44	13.7	2.24	5.13 µM	2.34 µM	7.74 µM	4.33 µM	19.5 µM	3.19	9.21 µM	3.34	15.6 µM	2.58	11.4 µM	2.95 µM	17.6 µM
CCOC(=O)c1cc(C(=O)c2cc(OC)c(OC)c(OC)c2)n2c1ccc1ccccc12	0.997	> 100	0.636 µM	> 100 µM	0.57	> 100	0.338	> 100 µM	0.131 µM		0.466 µM	> 100 µM	0.932	> 100 µM	0.254		0.461	> 100 µM	0.286 µM	> 100 µM
CCCCCCCCC/C(=N\NC(=O)c1ccncc1)c1ccc(O)c(O)c1O	0.0734	> 100	0.272 µM	> 100 µM	0.596	> 93.6	0.288	0.955 µM	0.418 µM	23.1 µM	0.09 µM	16 µM	0.521	> 100 µM	0.513	32.9 µM	0.244	> 100 µM	0.302 µM	> 100 µM
C[C@@H](NC(=O)/C(C#N)=C/c1ccc([N+](=O)[O-])cc1)c1ccccc1	1.76	3.29	2.52 µM	7.31 µM	5.53	26.4	2.42	5.51 µM	1.71 µM	3.47 µM	2.88 µM	8.91 µM	3.3	8.52 µM	4.85	10.2 µM	6.81	20.7 µM	2.94 µM	8.37 µM
Cc1cc(O)cc(C)c1/C=C/c1cncc(C(N)=O)c1	8.43	> 25	4.34 µM	> 25 µM	1.8	> 25	2.29	> 12.9 µM	0.779 µM	3.84 µM	2.8 µM	> 25 µM	1.25	14 µM	6.9	> 23.4 µM	7.93	> 25 µM	3.48 µM	> 25 µM
N/C(=N/N=C/c1ccccc1)N/N=C\c1ccccc1	6.4	> 100	> 100 µM	> 100 µM	4.73	> 100	3.9	23 µM	5.23 µM	> 100 µM	9.71 µM	> 100 µM	3.58	43.9 µM	3.25	52 µM	7.59	> 100 µM	3.79 µM	> 100 µM
CCCCCCCCCCCCSC1=C(Cl)C(=O)C(OC)=C(OC)C1=O	1.52	18.2	3.64 µM	15 µM	0.42	2.73	0.0502	5.82 µM	0.379 µM	3.75 µM	6.07 µM	18.5 µM	4.36	14.8 µM	3.22	17.5 µM	1.61	> 29.5 µM	4.39 µM	21.1 µM
CCNC(=O)Nc1ccc(Oc2ccnc3ccc4c(ccn4C)c23)cc1	59.2	> 100	40.1 µM	> 100 µM	23.2	62.1	> 100	> 100 µM	43.8 µM	> 100 µM	46.9 µM	> 100 µM	45.8	> 100 µM	44.6	> 100 µM	> 100	> 100 µM	44.1 µM	> 100 µM
S=C(NCCNC(=S)[S][Sn]([c]1ccccc1)([c]1ccccc1)[c]1ccccc1)[S][Sn]([c]1ccccc1)([c]1ccccc1)[c]1ccccc1	0.0185	0.0624	0.0638 µM	0.139 µM	0.02	0.091	0.093	0.312 µM	0.0265 µM	0.0941 µM	0.0677 µM	0.147 µM	0.0823	0.215 µM	0.019	0.0584 µM	0.0304	0.129 µM	0.0231 µM	0.0938 µM
CONC(C)=O		> 100		> 100 µM		> 100		> 100 µM		> 100 µM		> 100 µM		> 100 µM		> 100 µM		> 100 µM		> 100 µM
COCCNc1ccc2c3c(cccc13)C(=O)N(CCN(C)C)C2=O	4.64	> 25	4.11 µM	> 25 µM	4.87	23.8	6.78	14.4 µM	4.06 µM	12.4 µM	7.55 µM	> 25 µM	8.24	> 25 µM	7.66	> 25 µM	6.23	> 25 µM	6.35 µM	> 25 µM
